SMILES strings stand for the structures. Like-named read-outs stand apart in the source and are kept apart here.

A short description of series [1]: Hepatic first-pass effect / hepatic clearance rate (jugular vs pyloric vein AUC0-t) in inflamed rats. The note with it: inflamed rats (G5, n = 5), oral HLJDD; HCR% = 100×(AUC0−t pyloric vein − AUC0−t jugular vein)/AUC0−t pyloric vein. Type of series: in vivo, Sprague-Dawley rats. The protocol: (§1) For the PK-PD analysis, cannulas were implanted in each rat’s jugular vein (n = 22). To study the hepatic first-pass effect (HFPE), the jugular vein and the pyloric vein of each rat (n = 5) were cannulated according to the method described by Hye J. Chung et al. with slight modifications. Instead of the portal vein, the pyloric vein was cannulated to minimize the interference of blood flow in the portal vein [41]. The surgery was performed under anesthesia (3% chloral hydrate solution, intraperitoneal injection; 3.5 mL/kg) 5 days prior to the experiment. Rats with jugular vein intubation surgery were divided into four groups: a control group with HLJDD (G1, n = 6), aninflammatory group with HLJDD (G2, n = 6), aninflammatory group with physiological saline (G3, n = 5) and another inflammatory group with HLJDD (G4, n = 5). G1 and G2 were used for the pharmacokinetic study, while G3 and G4 were used for the pharmacodynamic study. Rats with jugular and pyloric vein cannulation for HFPE analysis were assigned to another inflammatory group with HLJDD (G5, n = 5).
The prepared HLJDD-EP solution was administered to the rats (G1, G2, G4 and G5) at 2 mL/100g body weight (crude material content: 3.5 g/kg) by oral gavage, and the G3 group was given the same volume of physiological saline. In the G1 and G2 groups, blood specimens (300 μL) were obtained before dosing and subsequently at 5 min, 10 min, 30 min, 1, 2, 4, 6, 8, 12, 24, 36 and 48 h after the oral administration of HLJDD-EP solution. In the G3 and G4 groups, blood samples (300 μL) were collected prior to dosing and followed at 10 min, 30 min, 1, 2, 4, 8, 24 and 48 h after drug administration. The rectal temperature of rats in the G3 and G4 groups was immediately monitored after each collection of blood. For the HFPE assay, blood specimens (150 μL) from both the jugular vein and the pyloric vein of the G5 rats were simultaneously taken before dosing and subsequently at 5 min, 10 min, 30 min, 1, 2, 4, 6, 8, 12, 24, 36 and 48 h after oral administration. Samples were collected in heparinized Eppendorf tubes and centrifuged at 3000 rpm for 15 min. The plasma was stored at -80°C until assay.
For the pharmacokinetic investigation and HFPE analysis, 100 μL aliquots of plasma were mixed with 5 μL of ascorbic acid (dissolved in physiological saline, w/v: 1 g/100 mL) and 200 μL of methanol (containing an internal standard stock solution with 80.0 ng/mL swertiamarin, 1.5 ng/mL corynoline and 33.0 ng/mL icariin), followed by vortexing and centrifuging at 15000 rpm for 20 min to remove the precipitate. The supernatant was dried with nitrogen at 40°C. […] The supernatant was analyzed using Agilent 1290 ultra-high performance liquid chromatography coupled with an Agilent 6490 Triple Quadrupole Mass Spectrometer (Agilent Technologies, Palo Alto, CA, USA).
Pharmacokinetic parameters of the determined compounds were processed by the non-compartmental method using Phoenix Winnonlin software (Pharsight Corporation, USA). […] The mean residence time (MRT) was determined as AUMC/AUC. The plasma half-life (HLλz), maximum plasma concentration (Cmax), the time to reach Cmax (Tmax) and other parameters following the administration of HLJDD were determined from the observed data. […] Concentrations of cytokines were analyzed by cytometric bead array software (FCAP Array version 3.0, BD Bioscience). All the data were expressed as the mean±standard deviation (SD). […]

Series [2] in a line: Pharmacokinetics of HLJDD components in rat plasma after oral administration of HLJDD (LC-QqQ-MS, non-compartmental). It is filed as in vivo, Sprague-Dawley rats. The note with it: oral HLJDD extract; for AUC%Extrap / AUCinf / AUClast / AUMClast / CL/F / Cmax1 / Cmax2 / HLλz / MRTlast / Tmax1 / Tmax2 / Vz/F / AUC(0-inf) / AUC(0-t) / MRT last / Vd/F: crude material 3.5 g/kg, plasma, n = 6; for mean AUClast, fold larger in the inflamed group than in the control group: inflamed vs normal rats; for Vd/F: read-out: Vz/F. Here is the method: The rats were acclimatized to the facilities for 5 days and screened via the continuous determination of the rectal temperature for two days. […] The control group G1 was injected with the same volume of physiological saline. The ethics committees of Cisco North Biotechnology Co., Ltd. (Beijing, China) and the China Academy of Chinese Medical Sciences (Beijing, China) approved the experimental protocol.
as §1
The prepared HLJDD-EP solution was administered to the rats (G1, G2, G4 and G5) at 2 mL/100g body weight (crude material content: 3.5 g/kg) by oral gavage, and the G3 group was given the same volume of physiological saline. […] The rectal temperature of rats in the G3 and G4 groups was immediately monitored after each collection of blood. […] Samples were collected in heparinized Eppendorf tubes and centrifuged at 3000 rpm for 15 min. The plasma was stored at -80°C until assay.
The supernatant was dried with nitrogen at 40°C. The residue was re-dissolved in 100 μL of methanol and centrifuged at 15000 rpm for 10 min.
Liquid chromatographic separations of the analytes were performed using a Thermo Scientific Hypersil GOLD column (50 mm× 2.1 mm, 1.9 μm). The mobile phase consisted of acetonitrile (solvent A) and 0.1% formic acid in water (solvent B). […] The flow rate was 0.3 mL/min. The injection volume was 2 μL. […] The optimized ESI source parameters were as follows: gas temperature, 200°C; gas flow, 14 L/min; nebulizer pressure, 20 psi; sheath gas temperature, 400°C; and sheath gas flow, 11 L/min. Analytes were quantitated by monitoring the precursor-product combination in the DMRM mode using ion polarity switching (flavonoids and alkaloids were determined in the positive mode, while iridoids were detected in the negative mode). To ensure the desired abundance of each compound, the CE values and other parameters were optimized and illustrated as follows: cycle time, 300 ms; positive capillary voltage, 3000 v; negative capillary voltage, 2000 v; positive nozzle voltage, 1500 v; negative nozzle voltage, 1000 v; Delta EMV(+), 200 v; Delta EMV(-), 200 v. The optimized mass transition ion pairs (m/z) for analytes and the detection of the conditions of the compounds are shown in S1 Table.
Pharmacokinetic parameters of the determined compounds were processed by the non-compartmental method using Phoenix Winnonlin software (Pharsight Corporation, USA). Linear trapezoidal integration was used to calculate areas under the concentration-time curves (AUC) and areas under the first moment curves (AUMC). The mean residence time (MRT) was determined as AUMC/AUC. The plasma half-life (HLλz), maximum plasma concentration (Cmax), the time to reach Cmax (Tmax) and other parameters following the administration of HLJDD were determined from the observed data. The HFPE was defined as HCR: HCR% = 100×(AUC0−t in the pyloric vein-AUC0−t in the jugular vein)/AUC0−t in the pyloric vein.

Setting [3] is: male, Sprague-Dawley, rat, in vivo, po, 3.5 g/kg, inflamed rats (group M).
Setting [4] is: male, Sprague-Dawley, rat, in vivo, po, 3.5 g/kg, normal rats (group B).
Where [5] appears, read: male, Sprague-Dawley, rat, po, 3.5 g/kg, inflamed rats (group M).
The mark [6] stands for this setting: male, Sprague-Dawley, rat, po, 3.5 g/kg, normal rats (group B).

Regarding `COc1cc(O[C@@H]2O[C@H](C(=O)O)[C@@H](O)[C@H](O)[C@H]2O)c2c(=O)cc(-c3ccccc3)oc2c1O[C@@H]1O[C@H](C(=O)O)[C@@H](O)[C@H](O)[C@H]1O` [F4, 5,8-dihyroxy-7-methoxy flavone-5,8-di-O-glucuronide], the “hepatic clearance rate (HCR)” value in series [1] is listed as “approximately zero”.

In the case of `COc1c(O[C@@H]2O[C@H](C(=O)O)[C@@H](O)[C@H](O)[C@H]2O)cc2oc(-c3ccccc3)cc(=O)c2c1O` [oroxylin A-7-O-glucuronide], in series [2] (inflamed rats (group M)), the AUC%Extrap is listed as 46.2±12.3%, the AUCinf stood at 2157.4 ± 785.0 ng·h/mL, the AUClast is 1209.8 ± 606.4 ng·h/mL and the AUMClast came to 18194.0±6706.5 h*h*ng/ml. Also, in series [2] (inflamed rats (group M)), the CL/F worked out at 12.1 ± 4.2 L/h/kg, the Cmax1 amounted to 108.7 ± 47.6 ng/mL, the Cmax2 was 65.5 ± 18.2 ng/mL and the HLλz is 20.1 ± 6.1 h. Besides, in series [2] (inflamed rats (group M)), the MRTlast was determined as 12.5 ± 2.3 h, the Tmax1 turned out to be 0.09 ± 0.03 h, the Tmax2 was found to be 9.6 ± 2.2 h and the Vz/F was 322.4 ± 22.0 L/kg. In series [2] (normal rats (group B)), the AUC%Extrap is given as 10.3±6.8%, the AUCinf is 486.8 ± 96.9 ng·h/mL, the AUClast was found to be 440.7 ± 106.9 ng·h/mL and the AUMClast came to 1935.2±487.3 h*h*ng/ml. In addition, in series [2] (normal rats (group B)), the CL/F is 50.7 ± 13.5 L/h/kg, the Cmax1 came out at 106.9 ± 43.8 ng/mL, the Cmax2 worked out at 85.8 ± 40.3 ng/mL and the HLλz was found to be 3.2 ± 0.9 h. Also, in series [2] (normal rats (group B)), the MRTlast was found to be 4.4 ± 0.5 h, the Tmax1 was found to be 0.09 ± 0.03 h, the Tmax2 was determined as 4.0 ± 0.0 h and the Vz/F was found to be 247.8 ± 140.4 L/kg.

Regarding `COC(=O)C1=CO[C@@H](O[C@@H]2O[C@H](CO)[C@@H](O)[C@H](O)[C@H]2O)[C@@H]2C(CO)=CC[C@H]12` [geniposide], in series [2] (inflamed rats (group M)), the AUC%Extrap is 8.9±2.9%, the AUMClast was 1231.9±677.2 h*h*ng/ml, the Cmax1 was 223.2 ± 43.7 ng/mL and the HLλz was 1.6 ± 0.7 h. In addition, in series [2] (inflamed rats (group M)), the Tmax1 turned out to be 0.8 ± 0.3 h. In series [2], the “mean AUClast, fold larger in the inflamed group than in the control group” value is recorded as 2.9 fold. Also, in series [2] (setting [3]), the total exposure AUC(0-inf) (commonly total exposure, with the tail of the curve extrapolated) was found to be 696 ± 363 ng·h/mL; the area under the curve AUC(0-t) (in general, exposure summed from dosing to a finite time, without extrapolation to infinity) was 638 ± 323 ng·h/mL; the MRT last (commonly the average time that molecules of a dose stay in the body) stood at 1.9 ± 0.8 h; the Vd/F is 372 ± 86.7 L/kg. In series [2] (male, Sprague-Dawley, rat, in vivo, po, 3.5 g/kg, inflamed rats (group M), read-out: CL/F (converted)), the CL/F was 225 L/h/kg. Further, in series [2] (setting [4]), the AUC(0-inf) stood at 240 ± 82.1 ng·h/mL, the AUC(0-t) was determined as 217 ± 86.2 ng·h/mL, the MRT last is 0.9 ± 0.1 h and the Vd/F was found to be 235 ± 94.2 L/kg. Moreover, the CL/F in series [2] (male, Sprague-Dawley, rat, in vivo, po, 3.5 g/kg, normal rats (group B), read-out: CL/F (converted)) was 412 L/h/kg. In series [2] (normal rats (group B)), the AUC%Extrap is on record as 11.5±1.5%, the AUMClast is 192.5±74.8 h*h*ng/ml, the Cmax1 was 171.6 ± 70.6 ng/mL and the HLλz is 0.6 ± 0.3 h. In addition, the Tmax1 in series [2] (normal rats (group B)) came out at 0.7 ± 0.3 h.

Turning to `COc1c(O)cc(O)c2c(=O)cc(-c3ccccc3)oc12` [wogonin], in series [2] (inflamed rats (group M)), the AUC%Extrap is 1.3±0.7%, the AUMClast is 442.5±232.9 h*h*ng/ml, the Cmax1 was 3.3 ± 0.7 ng/mL and the Cmax2 turned out to be 4.3 ± 1.8 ng/mL. In series [2] (inflamed rats (group M)), the HLλz stood at 7.1 ± 2.7 h, the Tmax1 was determined as 0.08 ± 0.0 h and the Tmax2 turned out to be 7.3 ± 2.7 h. The “mean AUClast, fold larger in the inflamed group than in the control group” value in series [2] turned out to be 5.4 fold. Further, in series [2] (setting [5]), the AUC(0-inf) came to 39.2 ± 8 ng·h/mL, the AUC(0-t) turned out to be 38.7 ± 8.1 ng·h/mL, the mean residence time (MRT last) is 11 ± 3.5 h and the Vd/F was found to be 1710 ± 667 L/kg. In addition, in series [2] (male, Sprague-Dawley, rat, po, 3.5 g/kg, inflamed rats (group M), read-out: CL/F (converted)), the CL/F is 165 L/h/kg. Further, in series [2] (setting [6]), the AUC(0-inf) was determined as 7.4 ± 2.6 ng·h/mL, the AUC(0-t) worked out at 7.2 ± 2.6 ng·h/mL, the MRT last worked out at 4.3 ± 0.8 h and the Vd/F stood at 4010 ± 1350 L/kg. In series [2] (normal rats (group B)), the AUC%Extrap worked out at 2.7±2.3%, the AUMClast is given as 31.8±14.3 h*h*ng/ml, the Cmax1 was 2.2 ± 1.2 ng/mL and the Cmax2 came out at 1.6 ± 0.7 ng/mL. In addition, in series [2] (normal rats (group B)), the HLλz came to 3.5 ± 1.3 h, the Tmax1 was 0.09 ± 0.03 h and the Tmax2 turned out to be 4.0 ± 0.0 h.

The record behind these values is PMC4900566, “Pharmacokinetic-Pharmacodynamic Analysis on Inflammation Rat Model after Oral Administration of Huang Lian Jie Du Decoction” (PLoS ONE, 2016).
